Data set [1] relates to subcutaneous adipose tissue. Put plainly: Daily topical or intraperitoneal administration in mice, histopathology of mid-scapular skin. It is filed as in vivo, Female BALB/cAnNCrl mice. The protocol: Female BALB/cAnNCrl mice were divided into five groups of three mice/group and seven groups of eight mice/group. Mice in Group 1 were age-matched, untreated pre-study reference animals, and mice in Group 2 were age-matched, untreated Day 29 reference animals. […] Mid-scapular skin was collected from each animal and histopathological examination was performed to determine the effects of the test articles on subcutaneous adipose deposition and skin thickness.

Another data set has as its system subcutaneous fat layer. The following applies: 25 mg/kg intraperitoneal, 28 consecutive days (FIG. 6). As to the method:
Three untreated mice were used as reference animals. On Day 29, all animals were sacrificed and histopathological examination of the dorsal lumbar skin was performed. […] The severity of subcutaneous fat atrophy was scored on a scale ranging from normal (score of “0”) to severe (score of “4”).

A further data set has as its system Human mature adipocytes. As to the method:
Human pre-adipocytes (Lonza, Allendale, N.J.) were differentiated into mature adipocytes according to the supplier's instructions. Mature adipocytes in maintenance medium (Zen-Bio, Research Triangle Park, N.C.) were treated with different statins (Sigma, St. Louis, Mo.) for 7 days over a range of concentrations. Cell viability was measured at Day 1, 3, 5, and 7 using the ALAMARBLUE® assay (Invitrogen, Carlsbad, Calif.).

Setting [2] is: intraperitoneal 25 mg/kg, 28 days.

Here are results for 4 compounds from patent publication US9925170B2, “Methods of adipolysis and compositions useful therein” (priority 2015, dated 2018).

Structures are written as SMILES.

With `CC[C@H](C)C(=O)O[C@H]1C[C@@H](C)C=C2C=C[C@H](C)[C@H](CC[C@@H]3C[C@@H](O)CC(=O)O3)[C@H]21` [lovastatin], the “atrophy of subcutaneous adipose tissue” value in data set [1] (setting [2]) is “present in skin of all mice”; in data set [1] (topical 0.5%, 28 days), “Only one mouse”; in data set [1] (topical 2.5%, 7 days) it was “present in all mice”; in data set [1] (topical 2.5%, 28 days) it was “present in all mice”. For the same compound, the “fat layer atrophy in skin sections” value with subcutaneous fat layer is on record as “significant fat layer atrophy”.

For `CC(=O)[C@H]1CC[C@H]2[C@@H]3CC=C4C[C@@H](O)CC[C@]4(C)[C@H]3CC[C@]12C` [pregnenolone], the “atrophy of subcutaneous adipose tissue” value in data set [1] (setting [2]) was “present in skin of all mice”; in data set [1] (topical 0.5%, 28 days) it was “present in a one mouse”.

As to `Cc1ccc(N(CC2=NCCN2)c2cccc(O)c2)cc1` [phentolamine], the “atrophy of subcutaneous adipose tissue” value was “present in skin of all mice” in data set [1] (setting [2]); “present in mice” in data set [1] (topical 0.5%, 7 days); “present in mice” in data set [1] (topical 2.5%, 7 days); “in one mouse” in data set [1] (topical 2.5%, 28 days).

In the case of `CC(C)n1c(/C=C/C(O)CC(O)CC(=O)O)c(-c2ccc(F)cc2)c2ccccc21` (stereo not drawn) [fluvastatin], in the data set on Human mature adipocytes, the “dose dependence of cytotoxic effect” value was “dose-dependent cytotoxic effect”.
